Source: patent US20100234313A1, “STABILIZED MICRONISED PARTICLES” (priority 2007, published 2010)

Experiments:
[1] = Sedimentation behaviour of suspensions (volume fraction below the sedimentation front); type: physicochemical
Protocol: In this experiment the stability of micronised and non-micronised natamycin suspensions was analyzed by observing the sedimentation behavior of the suspensions. A micronised natamycin suspension was prepared essentially as described in Example 2 with the proviso that the natamycin was suspended in demineralized water and the pH was not set. Next, a suspension with a final natamycin concentration of 1% (w/w) was prepared in an aqueous solution containing 0.01 M NaCl. The pH of samples of the suspension was set with 0.01 M NaOH and 0.01 M HCl. The samples of the suspension were stored and the pH was adjusted after 10 and 24 hours, if necessary. After 24 hours the pH of the samples of the suspension remained constant. Ten ml of each separate sample was placed in a plastic pipette (Ten ml sterile and disposable plastic pipette; inner diameter 7 mm; Bibby Sterilin Ltd. Stone, Staffordshire, United Kingdom) which was closed at both ends and stored vertically at 4° C. The sedimentation behavior of the samples was followed in time by measuring the volume above and below the sedimentation front within each pipette. In Table 7 the results are shown. The percentages indicate the volume fraction below the sedimentation front. […] This implies that the particles form sediment. The rate at which this occurs varies with pH. […]

[2] = system: Penicillium discolor PED1, CR1A and Penicillium discolor PED74, L1; experiment: Challenge test on coated Gouda cheese; type: cell-based
Protocol: To test the efficacy of micronised natamycin in a cheese application, an experiment was performed wherein the surface of fresh brined Gouda cheeses were challenged with Penicillium discolor strains and treated with formulations comprising natamycin with different particle sizes. The amount of mould spores that was able to germinate on the treated cheese surfaces are an indication of the anti-fungal activity of the natamycin analyzed. The cheeses (10 per natamycin particle type) were considered to be no longer protected by natamycin, when at least 50% of the cheeses analyzed had more than two growing colonies.
Cheeses were coated with a coating containing base polymer Craymul 4386 (Cray Valley, Brummen) and containing natamycin particles. Cheeses were then contaminated at day zero with Penicillium discolor PED1, CR1A and Penicillium discolor PED74, L1 at a concentration of 1.1×10^3/cm^2. The cheeses were visually checked for fungal growth on a daily basis for three weeks. The experiment was carried out with three different natamycin particles: disc-shaped natamycin particles having a mean particle diameter of 15 μm; grinded disc-shaped natamycin particles for which grinding was stopped when the mean particle diameter was 1.23 μm; and micronised natamycin particles having a mean particle diameter of 0.18 μm. […] As a control, 10 cheeses comprising no natamycin in the coating were analyzed. […]

[3] = Particle size distribution and mean particle size (d4,3) by laser diffraction (LS230); type: physicochemical; settings: for mean particle size (d4,3): non-ground product dispersed in water
Protocol: Measurements were carried out for the following organic compounds: natamycin (DSM Gist, Delft, the Netherlands), nystatin (DSM, Delft, the Netherlands), cocoa (Blooker Cocoa, Amsterdam, the Netherlands) and coffee (Douwe Egberts Coffee, Utrecht, the Netherlands). For natamycin two products each containing differently shaped natamycin particles were included in the example; a natamycin product comprising disc-shaped particles and a natamycin product comprising needle-shaped particles. Before use the coffee was filtered through a 150 μm sieve. Samples of the above organic compounds were dispersed in demineralised water until the light obscuration value, which was measured by Laser Diffraction technology using a Laser Diffraction Particle Size Analyzer LS230 from BeckmanCoulter, Fullerton, Calif., USA, was between 45% and 55%. […] Then, the particle size distribution was analysed with the device for 90 seconds. The device made use of a red laser and a tungsten lamp with wavelengths of 450, 600 and 900 nm to measure the particle size. The device required the refractive index of the liquid phase and the particles and the imaginary refractive index of the particles for determining the particle size distribution from the raw data. These values were manually entered into the measurement device (refractive index liquid: 1.33; refractive index natamycin: 1.6; nystatin: 1.6; cocoa: 2.0; coffee: 2.0; imaginary refractive index natamycin: 0.01; nystatin: 0.01; cocoa: 1.0; coffee: 1.0). From the particle size distribution the mean particle size was determined. The mean particle size provided by the measurement device was a volume based particle size, d4,3. The distribution per particle size range is given as a percentage of the total.
A buffer solution of pH 8 was made by mixing 13.75 ml citric acid solution of 0.1 mol/l with 486.25 ml sodium hydroxide solution of 0.2 mol/l. 25 g of disc-shaped natamycin (d4,3: 14.6 μm; DSM Gist, Delft, the Netherlands) was added to the buffer solution and the powder was dispersed by means of stirring. The grinding chamber (300 ml) of the ball mill (Dynomill KDL Special from Bachofen AG, Basel, Switzerland) was filled up to 75% (v/v) with 0.3 mm zirconium oxide beads stabilized with yttrium (Tosoh Corporation, Tokyo, Japan). The ball mill was operated at 2000 rotations per minute. The natamycin suspension was pumped through the ball mill at a flow rate of 6.1 g/s. The suspension that exited the ball mill was returned to the vessel containing the rest of the suspension. The suspension passed through the chamber of the ball mill multiple times during the grinding experiment. The residence time of the suspension in the grinding chamber and the vessel was 26.7 seconds and 59.4 seconds, respectively. Samples of the suspension exiting the mill were taken after 2, 5, 10, 20, 30, 45, 60, 75 and 90 minutes. The particle size in the suspension samples was measured for each sample by means of laser diffraction using the Laser Diffraction Particle Size Analyzer called LS230 from BeckmanCoulter (Fullerton, Calif., USA).
Disc-shaped natamycin powder was dispersed in water at a concentration of 3000 ppm. The mean particle size of the natamycin suspension was approximately 15 μm. The suspension was homogenized with a homogenizer (Panda 2K, ns100L, GEA NIRO SOAVI, Cell disrupter (R-type)) and a suspension comprising micronised natamycin particles was obtained. In Table 5 the mean particle size (d4,3) of the particles of the obtained suspension is shown as a function of homogenization pressure for a different number of homogenization cycles. […]
The experiment was essentially performed as for natamycin (see Example 2). […]

[4] = Dissolution test, suspension diluted 70 times with water at room temperature; type: physicochemical; settings: stirred
Protocol: A micronised natamycin suspension prepared essentially as described in Example 7 (with size smaller than 0.2 μm) was diluted 70 times with water at room temperature. The suspension was stirred. Samples were taken out after 5 seconds and then every 10 seconds. The particles were removed from the suspension by filtration with a 0.02 μm syringe-filter (Whatman International Ltd, England). The natamycin concentration of the remaining solution was measured with a spectrophotometer (Uvikon 933, Kontron Instruments). […] The solution reached saturation within 5 seconds (approximately 43 ppm natamycin in solution and solid particles remaining). The same test was repeated with non-grinded disc-shaped natamycin particles with a mean particle size of around 15 μm. In this case the saturation concentration was reached after approximately 2 hours.

Compound	sedimentation behaviour ([1]; all pH values (pH 3 to 10), within 24 hours)	Protection of cheese against fungal growth ([2]; 150 ppm natamycin in the coating)	Protection of cheese against fungal growth ([2]; 250 ppm natamycin in the coating)	mean particle size (d4,3) ([3]; listed as Disc-shaped natamycin powder)	mean particle size (d4,3) ([3]; listed as disc-shaped natamycin product)	Particle size distribution ([3]; particle size 0-0.2 μm)	Particle size distribution ([3]; particle size 0.2-0.8 μm)	Particle size distribution ([3]; particle size 0.8-2.0 μm)	Particle size distribution ([3]; particle size 2.0-5.0 μm)	Particle size distribution ([3]; particle size 5.0-10.0 μm)	Particle size distribution ([3]; particle size 10.0-50.0 μm)	Particle size distribution ([3]; particle size 50.0-200.0 μm)	time to reach saturation concentration [4]	mean particle size (d4,3) ([3]; listed as needle-shaped natamycin product)	volume percentage below the sedimentation front ([1]; pH 4 to 6, after one day)	mean particle size (d4,3) [3]
C[C@@H]1C/C=C/C=C/C=C/C=C/[C@H](O[C@@H]2O[C@H](C)[C@@H](O)[C@H](N)[C@@H]2O)C[C@@H]2O[C@](O)(C[C@@H](O)C[C@H]3O[C@@H]3/C=C/C(=O)O1)C[C@H](O)[C@H]2C(=O)O [Natamycin disc, natamycin]	completely sediment	16 days	18 days	approximately 15 μm	14.6 μm	0.0 % w/w	0.0 % w/w	0.8 % w/w	18.4 % w/w	32.6 % w/w	47.8 % w/w	0.4 % w/w	approximately 2 hours	–	–	–
C[C@@H]1C/C=C/C=C/C=C/C=C/[C@H](O[C@@H]2O[C@H](C)[C@@H](O)[C@H](N)[C@@H]2O)C[C@@H]2O[C@](O)(C[C@@H](O)C[C@H]3O[C@@H]3/C=C/C(=O)O1)C[C@H](O)[C@H]2C(=O)O [Natamycin needle, natamycin]	–	–	–	–	–	10.2 % w/w	7.2 % w/w	10.5 % w/w	24.9 % w/w	31.7 % w/w	15.6 % w/w	0.0 % w/w	–	6.4 μm	–	–
C[C@@H]1[C@H](O)[C@@H](C)/C=C/C=C/CC/C=C/C=C/C=C/C=C/C(O[C@H]2O[C@H](C)[C@@H](O)[C@H](N)[C@@H]2O)CC2O[C@](O)(CC(O)C(O)CCC(O)CC(O)CC(O)CC(=O)O[C@H]1C)CC(O)C2C(=O)O (stereo partly drawn) [Nystatin, nystatin]	–	–	–	–	–	7.4 % w/w	4.4 % w/w	27.2 % w/w	46.7 % w/w	12.2 % w/w	2.1 % w/w	0.0 % w/w	–	–	around 25%	3.4 μm
